The species entered for data set [1] is Mus musculus. Briefly: Effect on behavioral activity in Albino mouse assessed as inhibition of diazepam-induced startle reaction at 0.2 ml/10 g by hippocratic screen. The class given is functional, organism-based.
The species named for data set [2] is Mus musculus. Briefly: Effect on behavioral activity in Albino mouse assessed as inhibition of diazepam-induced anesthesia at 0.2 ml/10 g by hippocratic screen. The class given is functional, organism-based.
For data set [3], the species on record is Mus musculus. Nature of the data set: CNS toxicity in Albino mouse assessed as change in respiratory rate at 0.2 ml/10 g by hippocratic screen. It counts as organism-based. As to conditions: in vivo.
The species named for data set [4] is Mus musculus. Nature of the data set: Effect on behavioral activity in Albino mouse assessed as inhibition of diazepam-induced loss of screen grip at 0.2 ml/10 g by hippocratic screen. The class given is functional, organism-based.
The species entered for data set [5] is Mus musculus. Briefly: Effect on behavioral activity in Albino mouse assessed as inhibition of diazepam-induced ataxia at 0.2 ml/10 g for 15 mins by hippocratic screen. The class given is functional, organism-based.
The species named for data set [6] is Mus musculus. Nature of the data set: Effect on behavioral activity in Albino mouse assessed as inhibition of diazepam-induced paralysis at 0.2 ml/10 g by hippocratic screen. It counts as functional, organism-based.
The species named for data set [7] is Mus musculus. Briefly: CNS toxicity in Albino mouse assessed as tremors at 0.2 ml/10 g by hippocratic screen. It counts as organism-based. As to conditions: in vivo.
The species named for data set [8] is Mus musculus. Nature of the data set: CNS toxicity in Albino mouse assessed as startle reaction at 0.2 ml/10 g by hippocratic screen. The class given is organism-based. The conditions noted are these: in vivo.
For data set [9], the species on record is Mus musculus. Nature of the data set: CNS toxicity in Albino mouse assessed as loss of righting reflex at 0.2 ml/10 g by hippocratic screen. The conditions noted are these: in vivo. The class given is organism-based.
The species named for data set [10] is Mus musculus. Nature of the data set: Effect on behavioral activity in Albino mouse assessed as inhibition of diazepam-induced tremors at 0.2 ml/10 g by hippocratic screen. It counts as functional, organism-based.
The species named for data set [11] is Mus musculus. Briefly: CNS toxicity in Albino mouse assessed as loss of screen grip at 0.2 ml/10 g by hippocratic screen. It counts as organism-based. As to conditions: in vivo.
Data set [12] is filed under the species Mus musculus. Briefly: CNS toxicity in Albino mouse assessed as loss of analgesic activity at 0.2 ml/10 g by hippocratic screen. The class given is organism-based. As to conditions: in vivo.
The species entered for data set [13] is Mus musculus. Nature of the data set: CNS toxicity in Albino mouse assessed as ataxia at 0.2 ml/10 g by hippocratic screen. It counts as organism-based. The conditions noted are these: in vivo.
Data set [14] is filed under the species Mus musculus. Briefly: CNS toxicity in Albino mouse assessed as decrease in motor activity at 0.2 ml/10 g by hippocratic screen. It counts as organism-based. As to conditions: in vivo.
The species named for data set [15] is Mus musculus. Briefly: Effect on behavioral activity in Albino mouse assessed as inhibition of diazepam-induced decrease in motor activity at 0.2 ml/10 g for 2 hrs by hippocratic screen. The class given is functional, organism-based.
The species named for data set [16] is Mus musculus. Nature of the data set: Effect on behavioral activity in Albino mouse assessed as inhibition of diazepam-induced loss of analgesia at 0.2 ml/10 g by hippocratic screen. The class given is functional, organism-based.
The species entered for data set [17] is Mus musculus. Briefly: Effect on behavioral activity in Albino mouse assessed as inhibition of diazepam-induced loss of righting reflex at 0.2 ml/10 g after 2 hrs by hippocratic screen. It counts as functional, organism-based.
The species named for data set [18] is Mus musculus. Briefly: Effect on behavioral activity in Albino mouse assessed as inhibition of diazepam-induced pinnal reflex at 0.2 ml/10 g by hippocratic screen. The class given is functional, organism-based.
Data set [19] is filed under the species Mus musculus. Briefly: CNS toxicity in Albino mouse assessed as paralysis at 0.2 ml/10 g by hippocratic screen. The class given is organism-based. As to conditions: in vivo.
For data set [20], the species on record is Mus musculus. Nature of the data set: CNS toxicity in Albino mouse assessed as pinnal reflex at 0.2 ml/10 g by hippocratic screen. As to conditions: in vivo. It counts as organism-based.
In data set [21] the test system is Mus musculus. Briefly: CNS toxicity in Albino mouse assessed as anesthetic response at 0.2 ml/10 g by hippocratic screen. The class given is organism-based. As to conditions: in vivo.
The species named for data set [22] is Mus musculus. Briefly: Effect on behavioral activity in Albino mouse assessed as inhibition of diazepam-induced decrease in respiratory rate at 0.2 ml/10 g by hippocratic screen. It counts as functional, organism-based.
The species named for data set [23] is Mus musculus. Nature of the data set: Effect on behavioral activity in Albino mouse assessed as inhibition of diazepam-induced ataxia at 0.2 ml/10 g after 5 mins by hippocratic screen. The class given is functional, organism-based.
The species entered for data set [24] is Mus musculus. Briefly: Effect on behavioral activity in Albino mouse assessed as inhibition of diazepam-induced decrease in motor activity at 0.2 ml/10 g for 10 to 15 mins by hippocratic screen. The class given is functional, organism-based.
The species named for data set [25] is Mus musculus. Briefly: Effect on behavioral activity in Albino mouse assessed as inhibition of diazepam-induced loss of righting reflex at 0.2 ml/10 g after 1 hr by hippocratic screen. It counts as functional, organism-based.
Data set [26] addresses Sodium-dependent serotonin transporter (Homo sapiens) (UniProt P31645). Briefly: Inhibition of SERT PDSP analysis. The arrangement: scale not given: the % may be the effect or the level left.
The target of data set [27] is Sodium-dependent noradrenaline transporter (Homo sapiens) (UniProt P23975). Briefly: Inhibition of NET PDSP analysis.
Data set [28] deals with Sodium-dependent dopamine transporter (Homo sapiens) (UniProt Q01959).
Description: Inhibition of DAT PDSP analysis

Active and inactive are the calls of the source. The calls are words filed in the database; no cut-off is given here.

Sodium-dependent dopamine transporter (Homo sapiens), sequence (Q01959 whole entry): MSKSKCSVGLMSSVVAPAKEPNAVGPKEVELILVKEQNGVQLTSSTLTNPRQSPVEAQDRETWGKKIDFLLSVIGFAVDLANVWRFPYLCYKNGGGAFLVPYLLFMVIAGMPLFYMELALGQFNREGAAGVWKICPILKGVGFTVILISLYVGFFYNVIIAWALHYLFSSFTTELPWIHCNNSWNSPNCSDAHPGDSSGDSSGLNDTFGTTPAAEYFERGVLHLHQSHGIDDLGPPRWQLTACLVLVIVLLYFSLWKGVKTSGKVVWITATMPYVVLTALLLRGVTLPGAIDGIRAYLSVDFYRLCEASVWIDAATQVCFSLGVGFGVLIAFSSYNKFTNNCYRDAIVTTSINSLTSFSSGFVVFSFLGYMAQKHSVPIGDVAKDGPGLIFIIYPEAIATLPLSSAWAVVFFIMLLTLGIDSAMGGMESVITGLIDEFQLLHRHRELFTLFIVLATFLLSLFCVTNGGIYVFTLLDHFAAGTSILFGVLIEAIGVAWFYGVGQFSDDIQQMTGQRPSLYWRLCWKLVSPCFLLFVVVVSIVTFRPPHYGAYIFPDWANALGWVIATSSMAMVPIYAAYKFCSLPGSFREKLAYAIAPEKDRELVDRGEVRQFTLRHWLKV
Sodium-dependent serotonin transporter (Homo sapiens), sequence (P31645 whole entry, looked up): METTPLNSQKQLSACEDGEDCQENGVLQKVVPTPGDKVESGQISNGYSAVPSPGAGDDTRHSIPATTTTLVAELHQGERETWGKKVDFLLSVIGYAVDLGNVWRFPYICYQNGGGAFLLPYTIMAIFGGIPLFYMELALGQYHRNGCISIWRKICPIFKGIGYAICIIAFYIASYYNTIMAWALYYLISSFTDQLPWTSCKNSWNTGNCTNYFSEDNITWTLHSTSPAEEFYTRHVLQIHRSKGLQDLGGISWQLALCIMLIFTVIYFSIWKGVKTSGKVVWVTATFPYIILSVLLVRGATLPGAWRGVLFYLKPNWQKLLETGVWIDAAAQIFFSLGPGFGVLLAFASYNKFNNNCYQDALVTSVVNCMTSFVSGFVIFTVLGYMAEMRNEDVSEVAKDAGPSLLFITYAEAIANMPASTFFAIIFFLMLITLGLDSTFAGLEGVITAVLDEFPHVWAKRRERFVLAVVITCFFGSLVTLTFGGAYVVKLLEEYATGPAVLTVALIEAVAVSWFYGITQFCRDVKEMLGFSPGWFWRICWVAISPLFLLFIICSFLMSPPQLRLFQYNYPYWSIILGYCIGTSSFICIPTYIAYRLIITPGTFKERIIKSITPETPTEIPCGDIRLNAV
Sodium-dependent noradrenaline transporter (Homo sapiens), sequence (P23975 whole entry): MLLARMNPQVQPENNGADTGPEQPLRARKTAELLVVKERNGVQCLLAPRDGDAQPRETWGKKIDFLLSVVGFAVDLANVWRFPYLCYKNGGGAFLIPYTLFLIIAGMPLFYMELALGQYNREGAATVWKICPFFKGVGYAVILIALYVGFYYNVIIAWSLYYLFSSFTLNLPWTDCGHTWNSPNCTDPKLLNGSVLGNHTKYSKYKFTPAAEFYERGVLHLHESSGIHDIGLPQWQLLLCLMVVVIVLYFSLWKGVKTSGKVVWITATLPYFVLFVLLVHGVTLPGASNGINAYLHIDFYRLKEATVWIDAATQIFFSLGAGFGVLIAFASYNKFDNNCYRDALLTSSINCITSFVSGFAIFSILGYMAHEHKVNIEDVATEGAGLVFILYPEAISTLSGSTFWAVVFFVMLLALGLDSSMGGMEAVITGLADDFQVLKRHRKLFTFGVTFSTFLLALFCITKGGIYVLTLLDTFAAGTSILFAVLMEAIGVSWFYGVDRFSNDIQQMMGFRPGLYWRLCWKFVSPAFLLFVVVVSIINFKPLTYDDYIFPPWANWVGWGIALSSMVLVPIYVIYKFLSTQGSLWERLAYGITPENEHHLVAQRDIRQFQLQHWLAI

Consider `COc1ccc2c3c(oc2c1)C(=O)Nc1cccc(C)[n+]1C3.[Cl-]`, for which the result in the data set filed under Mus musculus [1], in the data set listed under Mus musculus [2], in the data set filed under Mus musculus [4], in the data set filed under Mus musculus [6], in the data set listed under Mus musculus [10] and in the data set filed under Mus musculus [16] was inactive. Besides, the result in the data set listed under Mus musculus [17], in the data set listed under Mus musculus [18] and in the data set filed under Mus musculus [22] was inactive. Also, the Activity result in the data set listed under Mus musculus [3], in the data set filed under Mus musculus [7], in the data set listed under Mus musculus [8], in the data set filed under Mus musculus [9], in the data set listed under Mus musculus [11] and in the data set filed under Mus musculus [12] was “Non-toxic” in each case. For the same compound, the Activity entry in the data set filed under Mus musculus [13], in the data set listed under Mus musculus [14], in the data set filed under Mus musculus [19], in the data set listed under Mus musculus [20] and in the data set with Mus musculus [21] was “Non-toxic” throughout. Moreover, the result in the data set filed under Mus musculus [5] and in the data set filed under Mus musculus [15] was Active.
As to `COc1ccc2c3c(oc2c1)C(=O)Nc1cc(C)cc[n+]1C3.[Cl-]`, the outcome in the data set filed under Mus musculus [1], in the data set listed under Mus musculus [23], in the data set filed under Mus musculus [2], in the data set filed under Mus musculus [4], in the data set listed under Mus musculus [6] and in the data set listed under Mus musculus [10] was inactive. Moreover, the result in the data set filed under Mus musculus [16], in the data set filed under Mus musculus [17], in the data set listed under Mus musculus [18] and in the data set listed under Mus musculus [22] was inactive. The Activity result in the data set listed under Mus musculus [3], in the data set listed under Mus musculus [7], in the data set filed under Mus musculus [8], in the data set filed under Mus musculus [9], in the data set filed under Mus musculus [11] and in the data set filed under Mus musculus [12] was “Non-toxic” throughout. Besides, the Activity entry in the data set filed under Mus musculus [13], in the data set listed under Mus musculus [14], in the data set filed under Mus musculus [19], in the data set listed under Mus musculus [20] and in the data set on Mus musculus [21] was “Non-toxic” in each case. Also, the result in the data set listed under Mus musculus [24] and in the data set listed under Mus musculus [25] was Active.
Take `NCCc1c[nH]c2ccc(O)cc12`: in data set [26], the Activity is over 10000%.
A word on the Ki: it is the equilibrium dissociation constant of an inhibitor or competing ligand from its target. `NC[C@H](O)c1ccc(O)c(O)c1`: the Ki in [27] is over 10 µM.
In turn, `NCCc1ccc(O)c(O)c1` displayed a Ki in data set [28] of over 10 µM.

Values taken from ChEMBL document CHEMBL1157703, “Synthesis, pharmacological studies and molecular modeling of some tetracyclic 1,3-diazepinium chlorides” (Bioorg Med Chem, 2010).
